# Measured values published in patent US20230374073A1, “DIMERIC MILLA IMMUNOMODULATORS” (Bristol-Myers Squibb Company, priority 2020, published 2023).
# Starred links: 1 amine or outer side, 2 acyl side, 3 side chain; linkers in the order of their positions; H or OH if unused. Positions of bridges follow the written chain, without caps; N, C: chain ends. Non-standard residues stand in square brackets, D forms with d. Residues, ends and D or L forms follow the SMILES beside them. Chains are numbered I, II in the order given. Trp(1-CH2COOH) = N[C@@H](Cc1cn(CC(=O)O)c2ccccc12)C(=O)O; X1 = O=C(NC1CCC(CC2CCC(NC(=O)[*:2])CC2)CC1)[*:1]; Hyp = O=C(O)[C@@H]1C[C@@H](O)CN1; NMeNle = CCCC[C@H](NC)C(=O)O; NMeA = CN[C@@H](C)C(=O)O; Dab = NCC[C@H](N)C(=O)O; Dap = NC[C@H](N)C(=O)O
# Biological target: T1, PD-1/PD-L1 (Homo sapiens, UniProt Q9NZQ7)
# T1 construct: TVMV protease site (C); made in house; host or cells: HEK293T cells
# T1 sequence (Q9NZQ7 18-239): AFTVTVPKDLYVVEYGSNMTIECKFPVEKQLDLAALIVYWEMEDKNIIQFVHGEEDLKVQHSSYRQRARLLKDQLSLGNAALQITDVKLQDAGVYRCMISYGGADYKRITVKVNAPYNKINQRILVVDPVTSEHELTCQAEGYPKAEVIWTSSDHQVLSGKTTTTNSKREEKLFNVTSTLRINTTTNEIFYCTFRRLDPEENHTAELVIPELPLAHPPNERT
# Experiment: PD-1/PD-L1 Homogenous Time-Resolved Fluorescence (HTRF) binding assay
# Text: The ability of the compounds of formula (I) to bind to PD-L1 was investigated using a PD-1/PD-L1 Homogenous Time-Resolved Fluorescence (HTRF) binding assay.
# Homogenous Time-Resolved Fluorescence (HTRF) Binding Assay
# The interaction of PD-1 and PD-L1 can be assessed using soluble, purified preparations of the extracellular domains of the two proteins. The PD-1 and PD-L1 protein extracellular domains were expressed as fusion proteins with detection tags, for PD-1, the tag was the Fc portion of Immunoglobulin (PD-1-Ig) and for PD-L1 it was the 6 histidine motif (PD-L1-His). All binding studies were performed in an HTRF assay buffer consisting of dPBS supplemented with 0.1% […] bovine serum albumin and 0.05% (v/v) Tween-20. For the h/PD-L1-His binding assay, inhibitors were pre-incubated with PD-L1-His (10 nM final) for 15 m in 4 μl of assay buffer, followed by addition of PD-1-Ig (20 nM final) in 1 μl of assay buffer and further incubation for 15 m. HTRF detection was achieved using europium crypate-labeled anti-Ig (1 nM final) and allophycocyanin (APC) labeled anti-His (20 nM final). Antibodies were diluted in HTRF detection buffer and 5 μl was dispensed on top of the binding reaction. […]
# Table 1 lists the IC50 values for representative examples of this disclosure measured in the PD-1/PD-L1 Homogenous Time-Resolved Fluorescence (HTRF) binding assay.
structure (smiles),measurement,value
"CCCC[C@H]1C(=O)N(C)[C@@H](CCCC)C(=O)N[C@@H](CC(C)C)C(=O)N[C@H](C(=O)NCC(N)=O)CSCC(=O)N[C@@H](Cc2ccc(O)cc2)C(=O)N(C)[C@@H](C)C(=O)N[C@@H](CC(N)=O)C(=O)N2CCC[C@H]2C(=O)N[C@@H](CNC(=O)NC2CCC(CC3CCC(NC(=O)NC[C@@H]4NC(=O)[C@@H]5CCCN5C(=O)[C@H](CC(N)=O)NC(=O)[C@H](C)N(C)C(=O)[C@H](Cc5ccc(O)cc5)NC(=O)CSC[C@@H](C(=O)NCC(N)=O)NC(=O)[C@H](CC(C)C)NC(=O)[C@H](CCCC)N(C)C(=O)[C@H](CCCC)N(C)C(=O)[C@H](Cc5cn(CC(=O)O)c6ccccc56)NC(=O)[C@H](CCN)NC(=O)[C@H](Cc5c[nH]c6ccccc56)NC(=O)[C@@H]5C[C@@H](O)CN5C(=O)[C@H](CC(C)C)NC4=O)CC3)CC2)C(=O)N[C@@H](CC(C)C)C(=O)N2C[C@H](O)C[C@H]2C(=O)N[C@@H](Cc2c[nH]c3ccccc23)C(=O)N[C@@H](CCN)C(=O)N[C@@H](Cc2cn(CC(=O)O)c3ccccc23)C(=O)N1C (stereo partly shown) [Compound 1002] (I: {CH2CO}-Y[NMeA]NP[Dap]L[Hyp]W[Dab][Trp(1-CH2COOH)][NMeNle][NMeNle]LCG-NH2 / II: {CH2CO}-Y[NMeA]NP[Dap]L[Hyp]W[Dab][Trp(1-CH2COOH)][NMeNle][NMeNle]LCG-NH2; linker I:5-II:5 via X1; thioether I:N-I:14, II:N-II:14)",IC50,10 nM
